Like-named read-outs stand apart in the source and are kept apart here.

A word on the IC50: it is the concentration that gives 50% inhibition. Usually AUC(0-t) stands for the area under the concentration-time curve up to a stated or last time point. A lower AUC(0-t) goes with low exposure. The term Cmax denotes the peak of the concentration-time curve.

One data set relates to HIV-1 strain 92HT599. As to the kind of experiment: Antiviral activity against HIV-1 strain 92HT599 in MT2 cells (p24 estimation). It is filed as cell-based. As to conditions: HIV-1 92HT599, ~96 hours. In short, it runs like this:
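Percent inhibition versus vehicle controls came from p24 quantified in supernatant aliquots. These were taken after ~96 h incubation of compound (DMSO ≤1%) with MT2 cells infected at 10 TCID50/30,000 cells.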

Another data set relates to HIV-1 pNL4-3 WT. Kind of data set: Antiviral activity against pNL4-3/WT strain in MT4 cells (p24 estimation). Conditions: Human immunodeficiency virus 1, MT4, 96 h, read-out: pNL4-3 WT IC50. In kind it is cell-based. In short, it runs like this: (§1)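 MT4 cells infected with HIV-1 pNL4-3 WT or V7A (defined TCID50, 1.5 h, 37° C), plated at 3×10^4 cells/well with test compound, final DMSO ≤1%. After 4 days' culture, p24 in supernatant aliquots measured by kit.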

The subject of the next data set is HIV-1 pNL4-3 V7A. Kind of data set: Antiviral activity against pNL4-3/V7A strain in MT4 cells (p24 estimation). It is filed as cell-based. Conditions: Human immunodeficiency virus 1, MT4, 96 h, read-out: pNL4-3 V7A IC50. In short, it runs like this:
as §1

A short description of data set [1]: Single dose oral pharmacokinetic study. In kind it is in vivo. As to conditions: mouse; Mice oral PK @30 mg/kg; plasma. Here is the method: Example 80: Evaluation of Compounds Single Dose Oral Pharmacokinetic Study
The test item was administered through oral route to animals (rat/mice) at 30 mg/kg dose in a suitable vehicle (10% Solutol+20% PEG) at 10 ml/kg dose volume. Blood samples (˜50 μL at each time point) were collected from retro-orbital plexus using K3 EDTA as anticoagulant in eppendorf tubes at defined time intervals 30 minutes, 1 hour, 2 hour, 4 hour, 8 hour, 24 hour & 48 hour under light ether anaesthesia. The samples were centrifuged at 3500×g to separate plasma and stored at −80° C. until analysis. Plasma 25 μl for Mice were processed as per described in sample preparation.
Standard solutions of the test compound 1 mg/mL solutions were prepared in DMSO and further dilutions were made in methanol. The calibration curve samples for LCMSMS analysis were prepared by spiking 25 μl of Mice plasma with 2.5 μl and of the appropriate working standard solution to obtain final concentrations 0.078, 0.156, 0.312, 0.625, 1.25, 2.5, 5, 10, 20 & 40 μg/ml. To the test compound plasma extraction was carried out using Acetonitrile precipitation. After reconstitution with solvent (50% Acetonitrile in Buffer) samples were analyzed by LCMSMS to get the concentrations to calculate PK Parameters.

[2] abbreviates: Human immunodeficiency virus 1, 0% serum binding assay, read-out: IC50 0% serum.
Setting [3] is: Human immunodeficiency virus 1, 40% serum binding assay, read-out: IC50 40% serum.

As to `CC(C)C1=C2[C@H]3CC[C@@H]4[C@@]5(C)CC[C@H](OC(=O)[C@H]6C[C@@H](C(=O)O)C6(C)C)C(C)(C)[C@@H]5CC[C@@]4(C)[C@]3(C)CC[C@@]2(NC(=O)C(C)(C)NC(=O)c2ccc(N3CCS(=O)(=O)CC3)cc2)CC1=O` [Example 57, (1R,3S)-3-((((3aR,5aR,5bR,7aR,9S,11aR,11bR,13aS)-3a-(2-(4-(1,1-dioxidothiomorpholino)benzamido)-2-methylpropanamido)-1-isopropyl-5a,5b,8,8,11a-pentamethyl-2-oxo-3,3a,4,5,5a,5b,6,7,7a,8,9,10,11,11a,11b,12,13,13a-octadecahydro-2H-cyclopenta[a]chrysen-9-yl)oxy)carbonyl)-2,2-dimethylcyclobutane-1-carboxylic acid], the IC50 in the data set on HIV-1 strain 92HT599 (setting [2]) is less than 3 nM; with HIV-1 strain 92HT599 (setting [3]), less than 50 nM; in the data set on HIV-1 pNL4-3 WT, 5.01 to 10 nM; in the data set with HIV-1 pNL4-3 V7A, 10 to 50 nM.
As for `CC(C)C1=C2[C@H]3CC[C@@H]4[C@@]5(C)CC[C@H](OC(=O)[C@H]6C[C@@H](C(=O)O)C6(C)C)C(C)(C)[C@@H]5CC[C@@]4(C)[C@]3(C)CC[C@@]2(NC(=O)C(C)(C)NC(=O)c2ccc(CN3CCS(=O)(=O)CC3)cc2)CC1=O` [Example 58, (1R,3S)-3-((((3aR,5aR,5bR,7aR,9S,11aR,11bR,13aS)-3a-(2-(4-((1,1-dioxidothiomorpholino)methyl)benzamido)-2-methylpropanamido)-1-isopropyl-5a,5b, 8,8,11a-pentamethyl-2-oxo-3,3a,4,5,5a,5b,6,7,7a,8,9,10,11,11a,11b,12,13,13a-octalecahydro-2H-cyclopenta[a]chrysen-9-yl)oxy)carbonyl)-2,2-dimethylcyclobutane-1-carboxylic acid], the IC50 in the data set with HIV-1 strain 92HT599 (setting [2]) is less than 3 nM; with HIV-1 strain 92HT599 (setting [3]), less than 50 nM; with HIV-1 pNL4-3 WT it was 5.01 to 10 nM; in the data set on HIV-1 pNL4-3 V7A, more than 50 nM.
For `Cc1ccc(C(=O)NC(C)(C)C(=O)N[C@@]23CC[C@]4(C)[C@H](CC[C@@H]5[C@@]6(C)CC[C@H](OC(=O)[C@H]7C[C@@H](C(=O)O)C7(C)C)C(C)(C)[C@@H]6CC[C@]54C)C2=C(C(C)C)C(=O)C3)cn1` [Example 61, (1R,3S)-3-((((3aR,5aR,5bR,7aR,9S,11aR,11bR,13aS)-1-isopropyl-5a,5b,8,8,11a-pentamethyl-3a-(2-methyl-2-(6-methylnicotinamido)propanamido)-2-oxo-3,3a,4,5,5a,5b,6,7,7a,8,9,10,11,11a,11b,12,13,13a-octadecahydro-2H-cyclopenta[a]chrysen-9-yl)oxy)carbonyl)-2,2-dimethylcyclobutane-1-carboxylic acid] the same measures were less than 3 nM, less than 50 nM, less than 5 nM and 10 to 50 nM.
In the case of `CC(C)C1=C2[C@H]3CC[C@@H]4[C@@]5(C)CC[C@H](OC(=O)[C@H]6C[C@@H](C(=O)O)C6(C)C)C(C)(C)[C@@H]5CC[C@@]4(C)[C@]3(C)CC[C@@]2(NC(=O)C(C)(C)NS(C)(=O)=O)CC1=O` [Example 63, sodium (1R,3S)-3-((((3aR,5aR,5bR,7aR,9S,11aR,11bR,13aS)-1-isopropyl-5a,5b,8,8,11a-pentamethyl-3a-(2-methyl-2-(methylsulfonamido)propanamido)-2-oxo-3,3a,4,5,5a,5b,6,7,7a,8,9,10,11,11a,11b,12,13,13a-octadecahydro-2H-cyclopenta[a]chrysen-9-yl)oxy)carbonyl)-2,2-dimethylcyclobutane-1-carboxylate], the IC50 is less than 3 nM with HIV-1 strain 92HT599 (setting [2]), less than 50 nM in the data set on HIV-1 strain 92HT599 (setting [3]), more than 10 nM in the data set on HIV-1 pNL4-3 WT and more than 50 nM in the data set with HIV-1 pNL4-3 V7A.
On to `CCOC(=O)NC(C)(C)C(=O)N[C@@]12CC[C@]3(C)[C@H](CC[C@@H]4[C@@]5(C)CC[C@H](OC(=O)[C@H]6C[C@@H](C(=O)O)C6(C)C)C(C)(C)[C@@H]5CC[C@]43C)C1=C(C(C)C)C(=O)C2` [Example 64], for which the IC50 with HIV-1 strain 92HT599 (setting [2]) is less than 3 nM; in the data set on HIV-1 strain 92HT599 (setting [3]) it was less than 50 nM; in the data set with HIV-1 pNL4-3 WT, 5.01 to 10 nM; in the data set with HIV-1 pNL4-3 V7A, more than 50 nM.
Consider `CC(C)C1=C2[C@H]3CC[C@@H]4[C@@]5(C)CC[C@H](OC(=O)[C@H]6C[C@@H](C(=O)O)C6(C)C)C(C)(C)[C@@H]5CC[C@@]4(C)[C@]3(C)CC[C@@]2(NC(=O)C(C)(C)NS(=O)(=O)c2ccc(Cl)cc2)CC1=O` [Example 65, (1R,3S)-3-((((3aR,5aR,5bR,7aR,9S,11aR,11bR,13aS)-3a-(2-((4-chlorophenyl)sulfonamido)-2-methylpropanamido)-1-isopropyl-5a,5b,8,8,11a-pentamethyl-2-oxo-3,3a,4,5,5a,5b,6,7,7a,8,9,10,11,11a,11b,12,13,13a-octadecahydro-2H-cyclopenta[a]chrysen-9-yl)oxy)carbonyl)-2,2-dimethylcyclobutane-1-carboxylic acid], for which the IC50 in the data set with HIV-1 strain 92HT599 (setting [2]) was less than 3 nM; with HIV-1 strain 92HT599 (setting [3]), less than 50 nM; in the data set with HIV-1 pNL4-3 WT, more than 10 nM; in the data set with HIV-1 pNL4-3 V7A, more than 50 nM. In addition, in data set [1], the AUC(0-t) turned out to be 145 µg·h/mL. In data set [1], the concentration peaked (Cmax) at 7380 ng/mL.
Consider `CC(C)C1=C2[C@H]3CC[C@@H]4[C@@]5(C)CC[C@H](OC(=O)[C@H]6C[C@@H](C(=O)O)C6(C)C)C(C)(C)[C@@H]5CC[C@@]4(C)[C@]3(C)CC[C@@]2(NC(=O)C(C)(C)NC(=O)c2ccc(Cl)cn2)CC1=O` [Example 70, (1R,3S)-3-((((3aR,5aR,5bR,7aR,9S,11aR,11bR,13aS)-3a-(2-(5-chloropicolinamido)-2-methylpropanamido)-1-isopropyl-5a,5b,8,8,11a-pentamethyl-2-oxo-3,3a,4,5,5a,5b,6,7,7a,8,9,10,11,11a,11b,12,13,13a-octadecahydro-2H-cyclopenta[a]chrysen-9-yl)oxy)carbonyl)-2,2-dimethylcyclobutane-1-carboxylic acid], for which the IC50 was less than 3 nM with HIV-1 strain 92HT599 (setting [2]), less than 50 nM in the data set on HIV-1 strain 92HT599 (setting [3]), less than 5 nM in the data set on HIV-1 pNL4-3 WT and less than 10 nM in the data set on HIV-1 pNL4-3 V7A.
With `Cc1cccc(NC(=O)NC(C)(C)C(=O)N[C@@]23CC[C@]4(C)[C@H](CC[C@@H]5[C@@]6(C)CC[C@H](OC(=O)[C@H]7C[C@@H](C(=O)O)C7(C)C)C(C)(C)[C@@H]6CC[C@]54C)C2=C(C(C)C)C(=O)C3)n1` [Example 72, (1R,3S)-3-((((3aR,5aR,5bR,7aR,9S,11aR,11bR,13aS)-1-isopropyl-5a,5b,8,8,11a-pentamethyl-3a-(2-methyl-2-(3-(6-methylpyridin-2-yl)ureido)propanamido)-2-oxo-3,3a,4,5,5a,5b,6,7,7a,8,9,10,11,11a,11b,12,13,13a-octadecahydro-2H-cyclopenta[a]chrysen-9-yl)oxy)carbonyl)-2,2-dimethylcyclobutane-1-carboxylic acid], the 50% inhibitory concentration (IC50) in the data set on HIV-1 strain 92HT599 (setting [2]) is less than 3 nM; in the data set with HIV-1 strain 92HT599 (setting [3]), less than 50 nM; in the data set on HIV-1 pNL4-3 WT, less than 5 nM; with HIV-1 pNL4-3 V7A, more than 50 nM.
